In general, pKa refers to the pH at which an ionisable group is half protonated.

The values that follow come from patent US12702656B2, “ALA and salt formulation” (Molecular Product Management LLC, priority 2016, dated 2026).

For data set [1] the following is noted: cited from earlier work.
Data set [2] can be described thus: Oral dissolve acceptability / ALA burn of ALA lozenges and tablets in users. The conditions noted are these: salt added to, or salt form used in, oral dissolve ALA formulation.
Method: These tablets are circular, 9 mm in diameter, approximately 5 mm thick, having a weight of approximately 0.35 g and dissolution times of about 3.5 minutes.
Such NaCl-tablet and Non-Salt-tablet formulations being referred to as “NaCl-formulations” and “Non-Salt-formulation” respectively.
One way to specify or measure the difference resulting from the addition of any organic or inorganic salt (such as NaCl) to a formulation, is to measure the degree to which the Salt-formulation has less of an ALA burn than the Non-Salt-formulation when dissolved in the mouth.
For data set [3] the following is noted: antacid taken with ALA taken orally (ingested); found by some individuals. From the text: Some of the ALA in the saliva is swallowed during oral dissolve administration, therefore the esophagus and stomach encounter some ALA and may be irritated by it, particularly in humans and non-human species with sensitive stomachs.

Structures are written as SMILES.

As to `O=C(O)CCCCC1CCSS1` (stereo not drawn) [ALA, Alpha-lipoic acid], in data set [1], the pKa was 4.7. Turning to `[Cl-].[Na+]` [NaCl, sodium chloride], the “reduction of ALA burn (burning sensation in the mouth)” value in data set [2] was “reduces the ALA burn during oral dissolution”.

For `O=C([O-])CCCC[C@@H]1CCSS1.[Na+]` [Na—R-ALA], the “reduction of ALA burn (burning sensation in the mouth)” value in data set [2] is “further reduction of the ALA burning and/or rawness problems”. On to `O=C([O-])[O-].[Ca+2]` [calcium carbonate], for which the stomach irritation entry in data set [3] is “reduces this stomach irritation”.
